{"source": "patent US20240115654A1", "about": "“INTRAVENOUS ADMINISTRATION OF ENGINEERED ANTIMICROBIAL AMPHIPHILIC PEPTIDES” (priority 2021, published 2024)", "excerpt": "All subjects who met eligibility criteria were confined to the clinical research unit from […] through Day 3. At admission, physical examination, vital signs, 12 lead ECG and weight were obtained, medical and medication history were updated if necessary, safety blood tests (hematology and chemistry), urinalysis, urine drug screen and an alcohol breath test were repeated and a urine pregnancy test was done for women of childbearing potential.\nAt each dose level, there were 2 sentinel subjects, (1 active, 1 placebo), who were dosed at least 48 hours in advance of the other subjects in their respective group. Following review of safety data, including physical examination, vital signs, and review of adverse events from the first 2 subjects, enrolment in the cohort continued.\nA 12-lead ECG was performed on Day 1, within 60 minutes of infusion start (in triplicate), mid-way through the infusion, at the completion of the infusion, 30 minutes after completion of the infusion and at various timepoints following the end of the infusion.\nVital signs were recorded within 60 minutes pre-dose, at the mid-point of the infusion and post dose vitals were assessed at completion of the infusion, 0.5, 1, 2, 3, 4, 6, 9, 12, 24 and 48 hours post dose, after at least 3 minutes of rest in supine position.\nSubjects returned to the study center 7 days after dosing, for the termination visit. A full physical examination, vital signs and weight were obtained, concomitant medications were updated if necessary, safety blood specimens (haematology and chemistry, PT and aPTT) and urine were collected for urinalysis and urine drug screening. A serum pregnancy test was done for women of childbearing potential and a 12-lead ECG was performed.\nIn this study dose limiting toxicity (DLT) was defined as any drug related ≥Grade 3 AEs occurring despite optimal therapeutic interventions (which included but were not limited to allergic/hypersensitivity reactions, dermatological reactions/infusion site reactions, haematological toxicities such as neutropenia, thrombocytopenia and anaemia and clinical chemistry abnormalities) experienced up to Day 7 (Termination Visit).\n(§1) All subjects who received any amount of study drug were included in the safety analysis (Safety population).\nThe study was a double blinded, randomized, placebo-controlled study. The placebo administered was 0.9% sodium chloride.\nOn Day 1 (day of dosing), subjects were randomly assigned either peptide IV or Placebo IV. At each dose level, there were 2 sentinel subjects, (1 active, 1 placebo), who were dosed at least 48 hours in advance of the other subjects in their respective group. Following review of safety data, including physical examination, vital signs, and review of adverse events from the first 2 subjects, enrolment in the cohort continued. All subjects who met eligibility criteria were confined to the clinical research unit from Day −2 through Day 3. At admission, physical examination, vital signs, 12 lead ECG and weight were obtained, medical and medication history were updated if necessary, safety blood tests (hematology and chemistry), urinalysis, urine drug screen and an alcohol breath test were repeated and a urine pregnancy test was done for women of childbearing potential.\nas §1", "note": "“And” between values parts separate entries of the source, which are not always exact repeats. Identical values can stand only once. Peptide text beside a SMILES is read from it."}
{"compound": "CC(C)[C@H](NC(=O)[C@H](Cc1c[nH]c2ccccc12)NC(=O)[C@H](CCCNC(=N)N)NC(=O)[C@H](CCCNC(=N)N)NC(=O)[C@@H](NC(=O)[C@@H](NC(=O)[C@H](CCCNC(=N)N)NC(=O)[C@@H](NC(=O)[C@@H](NC(=O)[C@H](CCCNC(=N)N)NC(=O)[C@H](CCCNC(=N)N)NC(=O)[C@H](Cc1c[nH]c2ccccc12)NC(=O)[C@@H](NC(=O)[C@H](CCCNC(=N)N)NC(=O)[C@H](CCCNC(=N)N)NC(=O)[C@@H](NC(=O)[C@H](CCCNC(=N)N)NC(=O)[C@H](CCCNC(=N)N)NC(=O)[C@@H](NC(=O)[C@H](Cc1c[nH]c2ccccc12)NC(=O)[C@H](CCCNC(=N)N)NC(=O)[C@@H](N)CCCNC(=N)N)C(C)C)C(C)C)C(C)C)C(C)C)C(C)C)C(C)C)C(C)C)C(=O)N[C@@H](CCCNC(=N)N)C(=O)N[C@@H](CCCNC(=N)N)C(N)=O", "note": "[SEQ ID NO: 1] (H-RRWVRRVRRVWRRVVRVVRRWVRR-NH2)", "values": [{"measurement": "Related TEAE Co[?], n participants", "setting": "Pooled SEQ ID NO: 1 (N = 29)", "value": 0}, {"measurement": "Related TEAE F[?], n participants", "setting": "Pooled SEQ ID NO: 1 (N = 29)", "value": 0}, {"measurement": "Related TEAE Nervous system disorders, n participants", "setting": "Pooled SEQ ID NO: 1 (N = 29)", "value": 0}, {"measurement": "Related TEAE O[?] (r38, respiratory SOC), n participants", "setting": "Pooled SEQ ID NO: 1 (N = 29)", "value": 0}, {"measurement": "Related TEAE Pain in extremity, n participants", "setting": "Pooled SEQ ID NO: 1 (N = 29)", "value": 0}, {"measurement": "Related TEAE Respiratory, thoracic and m[?] disorders, n participants", "setting": "Pooled SEQ ID NO: 1 (N = 29)", "value": 0}, {"measurement": "Related TEAE T[?], n participants", "setting": "Pooled SEQ ID NO: 1 (N = 29)", "value": 0}, {"measurement": "Related TEAE [?] headache, n participants", "setting": "Pooled SEQ ID NO: 1 (N = 29)", "value": 0}, {"measurement": "Related TEAE, occurrences (M)", "setting": "Pooled SEQ ID NO: 1 (N = 29)", "value": 12}, {"measurement": "TEAE A[?] (r19, skin SOC), n participants", "setting": "Pooled SEQ ID NO: 1 (N = 29)", "value": 0}, {"measurement": "TEAE Blood and lymphatic system disorders, n participants", "setting": "Pooled SEQ ID NO: 1 (N = 29)", "value": 0}, {"measurement": "TEAE Constipation, n participants", "setting": "Pooled SEQ ID NO: 1 (N = 29)", "value": 0}, {"measurement": "TEAE D[?] contact, M occurrences", "setting": "Pooled SEQ ID NO: 1 (N = 29)", "value": 3}, {"measurement": "TEAE D[?] contact, n participants", "setting": "Pooled SEQ ID NO: 1 (N = 29)", "value": 2}, {"measurement": "TEAE Gastrointestinal disorders, M occurrences", "setting": "Pooled SEQ ID NO: 1 (N = 29)", "value": 3}, {"measurement": "TEAE Gastrointestinal disorders, n participants", "setting": "Pooled SEQ ID NO: 1 (N = 29)", "value": 2}, {"measurement": "TEAE General disorders and administration site conditions, M occurrences", "setting": "Pooled SEQ ID NO: 1 (N = 29)", "value": 8}, {"measurement": "TEAE General disorders and administration site conditions, n participants", "setting": "Pooled SEQ ID NO: 1 (N = 29)", "value": 7}, {"measurement": "TEAE Injury, [?] and procedural complications, % participants", "setting": "Pooled SEQ ID NO: 1 (N = 29)", "value": 48.3, "unit": "%"}, {"measurement": "TEAE Injury, [?] and procedural complications, n participants", "setting": "Pooled SEQ ID NO: 1 (N = 29)", "value": 14}, {"measurement": "TEAE O[?] (r37, vascular SOC), M occurrences", "setting": "Pooled SEQ ID NO: 1 (N = 29)", "value": 2}, {"measurement": "TEAE O[?] (r37, vascular SOC), n participants", "setting": "Pooled SEQ ID NO: 1 (N = 29)", "value": 1}, {"measurement": "TEAE O[?] pain, n participants", "setting": "Pooled SEQ ID NO: 1 (N = 29)", "value": 0}, {"measurement": "TEAE Related (to study drug), M occurrences", "setting": "Pooled SEQ ID NO: 1 (N = 29)", "value": 12}, {"measurement": "TEAE Related (to study drug), n participants", "setting": "Pooled SEQ ID NO: 1 (N = 29)", "value": 2}, {"measurement": "TEAE Respiratory, thoracic and [?] disorders, n participants", "setting": "Pooled SEQ ID NO: 1 (N = 29)", "value": 0}, {"measurement": "TEAE Severity Grade 1, participants %", "setting": "Pooled SEQ ID NO: 1 (N = 29)", "value": 82.8, "unit": "%"}, {"measurement": "TEAE Severity Grade 1, participants n", "setting": "Pooled SEQ ID NO: 1 (N = 29)", "value": 24}, {"measurement": "TEAE Skin reaction, M occurrences", "setting": "Pooled SEQ ID NO: 1 (N = 29)", "value": 3}, {"measurement": "TEAE Skin reaction, n participants", "setting": "Pooled SEQ ID NO: 1 (N = 29)", "value": 2}, {"measurement": "TEAE V[?] (r24, general SOC), M occurrences", "setting": "Pooled SEQ ID NO: 1 (N = 29)", "value": 4}, {"measurement": "TEAE V[?] (r24, general SOC), n participants", "setting": "Pooled SEQ ID NO: 1 (N = 29)", "value": 3}, {"measurement": "TEAE Vascular disorders, M occurrences", "setting": "Pooled SEQ ID NO: 1 (N = 29)", "value": 5}, {"measurement": "TEAE Vascular disorders, n participants", "setting": "Pooled SEQ ID NO: 1 (N = 29)", "value": 3}, {"measurement": "TEAE [?] (r26, general SOC), n participants", "setting": "Pooled SEQ ID NO: 1 (N = 29)", "value": 0}, {"measurement": "TEAE [?] (r39, vascular SOC), n participants", "setting": "Pooled SEQ ID NO: 1 (N = 29)", "value": 0}, {"measurement": "TEAE [?] (r44, nervous SOC), n participants", "setting": "Pooled SEQ ID NO: 1 (N = 29)", "value": 0}, {"measurement": "TEAE [?] (r52, blood SOC), n participants", "setting": "Pooled SEQ ID NO: 1 (N = 29)", "value": 0}, {"measurement": "TEAE, occurrences (M)", "setting": "Pooled SEQ ID NO: 1 (N = 29)", "value": 52}, {"measurement": "Participants With At Least 1 TEAE, n (%)", "setting": "Pooled SEQ ID NO: 1 (N = 35)", "value": "31 (88.6%)"}, {"measurement": "Participants With At Least 1 TEAE, occurrences m", "setting": "Pooled SEQ ID NO: 1 (N = 35)", "value": "71 and 72"}, {"measurement": "Participants With At Least 1 Treatment-Related TEAE, n (%)", "setting": "Pooled SEQ ID NO: 1 (N = 35)", "value": "13 (37.1%)"}, {"measurement": "Participants With At Least 1 Treatment-Related TEAE, occurrences m", "setting": "Pooled SEQ ID NO: 1 (N = 35)", "value": 23}, {"measurement": "TEAE by system organ class: Blood and Lymphatic System Disorders, participants n (%)", "setting": "Pooled SEQ ID NO: 1 (N = 35)", "value": 0}, {"measurement": "TEAE by system organ class: Gastrointestinal Disorders, occurrences m", "setting": "Pooled SEQ ID NO: 1 (N = 35)", "value": 4}, {"measurement": "TEAE by system organ class: Gastrointestinal Disorders, participants n (%)", "setting": "Pooled SEQ ID NO: 1 (N = 35)", "value": "3 (8.6%)"}, {"measurement": "TEAE by system organ class: General Disorders and Administration Site Conditions, occurrences m", "setting": "Pooled SEQ ID NO: 1 (N = 35)", "value": 17}, {"measurement": "TEAE by system organ class: General Disorders and Administration Site Conditions, participants n (%)", "setting": "Pooled SEQ ID NO: 1 (N = 35)", "value": "13 (37.1%)"}, {"measurement": "TEAE by system organ class: Infections and Infestations, occurrences m", "setting": "Pooled SEQ ID NO: 1 (N = 35)", "value": 1}, {"measurement": "TEAE by system organ class: Infections and Infestations, participants n (%)", "setting": "Pooled SEQ ID NO: 1 (N = 35)", "value": "1 (2.9%)"}, {"measurement": "TEAE by system organ class: Injury, Poisoning, and Procedural Complications, occurrences m", "setting": "Pooled SEQ ID NO: 1 (N = 35)", "value": 24}, {"measurement": "TEAE by system organ class: Injury, Poisoning, and Procedural Complications, participants n (%)", "setting": "Pooled SEQ ID NO: 1 (N = 35)", "value": 18}, {"measurement": "TEAE by system organ class: Musculoskeletal and Connective Tissue Disorders, occurrences m", "setting": "Pooled SEQ ID NO: 1 (N = 35)", "value": 6}, {"measurement": "TEAE by system organ class: Musculoskeletal and Connective Tissue Disorders, participants n (%)", "setting": "Pooled SEQ ID NO: 1 (N = 35)", "value": "6 (17.1%)"}, {"measurement": "TEAE by system organ class: Nervous System Disorders, occurrences m", "setting": "Pooled SEQ ID NO: 1 (N = 35)", "value": 6}, {"measurement": "TEAE by system organ class: Nervous System Disorders, participants n (%)", "setting": "Pooled SEQ ID NO: 1 (N = 35)", "value": "6 (17.1%)"}, {"measurement": "TEAE by system organ class: Respiratory, Thoracic, and Mediastinal disorders, participants n (%)", "setting": "Pooled SEQ ID NO: 1 (N = 35)", "value": 0}, {"measurement": "TEAE by system organ class: Skin and Subcutaneous Tissue Disorders, occurrences m", "setting": "Pooled SEQ ID NO: 1 (N = 35)", "value": 9}, {"measurement": "TEAE by system organ class: Skin and Subcutaneous Tissue Disorders, participants n (%)", "setting": "Pooled SEQ ID NO: 1 (N = 35)", "value": "7 (20.0%)"}, {"measurement": "TEAE by system organ class: Vascular Disorders, occurrences m", "setting": "Pooled SEQ ID NO: 1 (N = 35)", "value": 5}, {"measurement": "TEAE by system organ class: Vascular Disorders, participants n (%)", "setting": "Pooled SEQ ID NO: 1 (N = 35)", "value": "3 (8.6%)"}, {"measurement": "TEAE severity Grade 1, occurrences m", "setting": "Pooled SEQ ID NO: 1 (N = 35)", "value": 64}, {"measurement": "TEAE severity Grade 1, participants n (%)", "setting": "Pooled SEQ ID NO: 1 (N = 35)", "value": "30 (85.7%)"}, {"measurement": "TEAE severity Grade 2, occurrences m", "setting": "Pooled SEQ ID NO: 1 (N = 35)", "value": 8}, {"measurement": "TEAE severity Grade 2, participants n (%)", "setting": "Pooled SEQ ID NO: 1 (N = 35)", "value": "5 (14.3%)"}, {"measurement": "TEAE severity Grade 3, participants n (%)", "setting": "Pooled SEQ ID NO: 1 (N = 35)", "value": 0}, {"measurement": "TEAE severity Grade 4, participants n (%)", "setting": "Pooled SEQ ID NO: 1 (N = 35)", "value": 0}]}
